In patent US20250325675A1, “APTAMER, CONJUGATE, COMPOSITION, METHOD FOR PREPARING SAME, AND USE THEREOF” (priority 2022, published 2025):

B1: conjugate 38: siRNA sense strand 5′ terminal linked to 2′-O-cetyl modified aptamer by four propylene phosphate ester groups; Cy5 on antisense strand; SEQ ID NO: 72/48 (conjugate)
sense: CUGGAGUUCAGACGUGUUGCUCUUCCGAUCUCUUCUAGAAAACUGGAUAACGU
antisense: ACGUUAUCCAGUUUUCUAGCC
modifications: cetyl-modified aptamer, propylene phosphate linkers, Cy5, chemistry not fully specified
B2: conjugate 37: siRNA sense strand 3′ terminal linked to AP2 delivery group by Spacer18-GfAfUf; Cy5 on antisense strand; SEQ ID NO: 71/48 (conjugate)
sense: CUAGAAAACUGGAUAACGUGAUCUGGAGUUCAGACGUGUUGCUCUUCCGAUCUC
antisense: ACGUUAUCCAGUUUUCUAGCC
modifications: AP2 delivery group, Spacer18 linker, Cy5; misc_feature 19 is linked to Spacer18 at 3' end

Legend:
[1] = system: 293T human renal epithelial cells; assay: High content imaging: entry of conjugates into 293T cells; type: cell-based; conditions: 100 nM, 30 min 37°C, normal cells
Method: (§1) In this experiment, the entry of conjugate AP1 provided by the present disclosure and comparative conjugate comparative AP10 into different cells was observed by a PerkinElmer High Content Imaging system (Operatta).
(§2) U118MG glioma cells, SVGp12 normal astrocytes, T98G human brain glioma cells, U251 human glioma cells, A549 human non-small cell lung cancer cells, MCF-7 human breast cancer cells, and 293T human kidney epithelial cells were all purchased from the Shanghai Cell Bank of Chinese Academy of Sciences. […] The supernatant was aspirated and DPBS buffer (purchased from Thermo Fisher) was added to wash the plate 2 times (100 μL each time).
(§3) Conjugate AP1 prepared above and yeast tRNA were respectively formulated into conjugate solution 2A with DMEM medium, and the conjugate solution 2A comprised yeast tRNA at a final concentration of 100 μg/mL and conjugate AP1 at a final concentration of 100 nM. […]
(§4) Normalization was performed according to the mean fluorescence intensity of control group 2Y, that is, subtracting the mean fluorescence intensity of control group 2Y from the fluorescence intensity of test group 2X before performing imaging.

[2] = system: MCF-7 human breast cancer cells; assay: High content imaging: entry of conjugates into MCF-7 cells; type: cell-based; conditions: 100 nM, 30 min 37°C
Method: as §1, §2, §3, §4

[3] = system: A549 human non-small cell lung cancer cells; assay: High content imaging: entry of conjugates into A549 cells; type: cell-based; conditions: 100 nM, 30 min 37°C
Method: as §1, §2, §3, §4

[4] = system: A549 human non-small cell lung cancer tumor spheres; assay: High content imaging: entry into A549 tumor spheres; type: cell-based; conditions: 100 nM, imaging without washing
Method: (§5) In this experiment, the entry of conjugate AP1 provided by the present disclosure and comparative conjugate comparative AP10 into U118MG glioma tumor spheres and A549 human non-small cell lung cancer tumor spheres was observed by a PerkinElmer High Content Imaging system (Operatta).
(§6) 80 μL fresh, sterilized and unsolidified 2% agarose was added into the culture wells of a 96-well plate. […] Half of the supernatant was aspirated every 48 h and fresh DMEM medium was added along the wall of the culture wells. After 7 days of culture, the cells were observed under the microscope to confirm that complete cell spheres were obtained, indicating successful tumor sphere cultivation.
(§7) Each culture well was added with AP1 or comparative AP10 according to the method of experimental Example 2, and imaged in a high content imaging system, with the only difference of directly performing imaging after culture without washing and performing imaging according to the measured fluorescence intensity of Cy5.

[5] = system: U118MG glioma tumor spheres; assay: High content imaging: entry into U118MG tumor spheres; type: cell-based, human; conditions: 100 nM, imaging without washing
Method: as §5, §6, §7

[6] = system: SVGp12 normal astrocytes; assay: High content imaging: entry of conjugates into SVGp12 normal astrocytes; type: cell-based, human; conditions: 100 nM, 30 min 37°C
Method: as §1, §2, §3, §4

[7] = system: U118-MG glioma cells; assay: Flow cytometry: entry of conjugates into U118-MG glioma cells in vitro; type: cell-based, human; conditions: 1 h 37°C, yeast tRNA 100 μg/mL, flow cytometry
Method: U118MG cells were seeded into a 96-well plate at 5×10^5 cells/well. Conjugate AP1 prepared above and yeast tRNA were respectively formulated into conjugates solution 1A, 1B, 1C, 1D, 1E, 1F, 1G, 1H, and 1I with DMEM medium, and these conjugate solutions 1A-1I comprised yeast tRNA at a final concentration of 100 μg/mL and respectively comprised conjugate AP1 at final concentrations of 5 nM, 10 nM, 20 nM, 40 nM, 60 nM, 80 nM, 100 nM, 150 nM, 200 nM, and […].
Control conjugate comparative AP10 prepared above and yeast tRNA were respectively formulated into conjugates solution 1A′, 1B′, 1C′, 1D′, 1E′, 1F′, 1G′ 1H′, and 1I′ with DMEM medium, and these conjugate solutions 1A′-1I′ comprised yeast tRNA at a final concentration of 100 μg/mL and respectively comprised control conjugate comparative AP10 at final concentrations of 5 nM, 10 nM, 20 nM, 40 nM, 60 nM, 80 nM, 100 nM, 150 nM, 200 nM, and […].
The aforementioned culture wells containing U118MG cells were respectively added with the conjugate solutions 1A-1I above in an amount of 200 μL/well and designated as test group 1A-test group 1I. The aforementioned culture wells containing U118MG cells were respectively added with the conjugate solution 1A′-1I′ above in an amount of 200 μL/well and designated as control group 1A′-control group 1I′. Another culture well containing U118MG cells was added with 200 μL DMEM medium containing yeast tRNA at a final concentration of 100 μg/mL and designated as blank control group 1J. The 96-well plate containing the above test groups and the blank control group were incubated at 37° C. for 1 h in the dark; after incubation, the supernatant of the reaction mixture of each test group and the blank control group was aspirated, and DPBS buffer (purchased from Thermo Fisher) was added to wash the plate 3 times (100 μL each time). After the washing solution was aspirated, each culture well was added with 100 μL DMEM medium to obtain a cell suspension. The supernatant was removed by centrifugation and then 500 μL DPBS buffer was added to re-suspend the cells. Flow cytometry analysis was performed with flow cytometer (BD Biosciences): 10,000 cells in each test group or the blank control group were analyzed, the fluorescence intensity distribution was determined and the mean fluorescence intensity (MFI, a.u.) was calculated. Furthermore, the mean fluorescence intensity corresponding to each final concentration of conjugates is listed in Table 4 below for comparison, and the relative fluorescence difference R is calculated according to the following equation: R=(MFIAP1−MFICAP10)/MFICAP10.
Therein, MFIAP1 represents mean fluorescence intensity of conjugate AP1 in U118-MG glioma cells, and MFICAP10 represents mean fluorescence intensity of comparative AP10 in U118-MG glioma cells.

[8] = system: U251 human glioma cells; assay: High content imaging: entry of conjugates into U251 cells; type: cell-based; conditions: 100 nM, 30 min 37°C
Method: as §1, §2, §3, §4

[9] = system: hSTAT3 mRNA; assay: hSTAT3 mRNA inhibition by free uptake in PANC-1 cells, qPCR (Experimental Example 18); type: cell-based; conditions: PANC1 human pancreatic cancer cells, free uptake 2 μM, RNA extracted after 7 days
Method: PANC-1 human pancreatic cancer cells in the logarithmic growth phase were selected and digested (0.25% pancreatic enzyme). The cells were collected, centrifuged to remove the supernatant, and then resuspended in DMEM medium containing 10% FBS to be formulated into cell culture solution with a concentration of 1×10^5 cells/mL. The solutions were mixed thoroughly, seeded into a 24-well plate (with 1 mL/well, i.e. 1×10^5 cells/well).
After respectively culturing the cell solutions in different culture wells of a 24-well plate for 24 h, the supernatant was aspirated and 900 μL DMEM medium containing 10% FBS was added into each well. […]
For each reverse transcription reaction system, 5 μL of the above cDNA-containing solution was taken as the template. By using a SYBR Select Master Mix Kit (purchased from Thermo Fisher Scientific, Cat. No. 4472908), the target gene hSTAT3 and the internal control gene hGAPDH were amplified in a SteponePlus™ Real-Time fluorescence quantitative PCR Thermal Cycler (purchased from Thermo Fisher Scientific) according to the operation method the instruction. […]
For each test group and control group, the above quantitative PCR detection was performed twice.
The fluorescence quantitative data was analyzed by relative quantitative 2^−ΔΔct method, and the calculation method was as follows: […]

| Molecule | Cy5 fluorescence signal in cells [1] | Cy5 fluorescence signal in cells [2] | Cy5 fluorescence signal in cells [3] | Cy5 fluorescence signal in tumor spheres [4] | Cy5 fluorescence signal in tumor spheres [5] | Cy5 fluorescence signal in cells [6] | mean fluorescence intensity (MFI) ([7]; conjugate 5 nM) | mean fluorescence intensity (MFI) ([7]; conjugate 10 nM) | mean fluorescence intensity (MFI) ([7]; conjugate 20 nM) | mean fluorescence intensity (MFI) ([7]; conjugate 40 nM) | mean fluorescence intensity (MFI) ([7]; conjugate 60 nM) | mean fluorescence intensity (MFI) ([7]; conjugate 80 nM) | mean fluorescence intensity (MFI) ([7]; conjugate 100 nM) | mean fluorescence intensity (MFI) ([7]; conjugate 150 nM) | mean fluorescence intensity (MFI) ([7]; conjugate 200 nM) | mean fluorescence intensity (MFI) ([7]; conjugate 500 nM) | Cy5 fluorescence signal in cells [8] | inhibition rate against hSTAT3 mRNA [9] |
| --- | --- | --- | --- | --- | --- | --- | --- | --- | --- | --- | --- | --- | --- | --- | --- | --- | --- | --- |
| CY5-CfCfAGAGUfCfGCfUfGAGAUfUfCfGUfGGCfGCfUfAUfAUf (CCAGAGUCGCUGAGAUUCGUGGCGCUAUAU; listed as RNA, chemistry not fully specified) [comparative AP10, reference compound] | nor the 293T human renal epithelial cells showed any fluorescence signal | neither the tumor cells treated with comparative AP10 nor the 293T human renal epithelial cells showed any fluorescence signal | neither the tumor cells treated with comparative AP10 nor the 293T human renal epithelial cells showed any fluorescence signal | only the edge of the comparative AP10-treated tumor spheres showed significantly weak fluorescence signal | only the edge of the comparative AP10-treated tumor spheres showed significantly weak fluorescence signal | did not show any fluorescence signal | 25.4 a.u. | 67.4 a.u. | 176.4 a.u. | 443.4 a.u. | 666.4 a.u. | 787.4 a.u. | 1167.4 a.u. | 1251.4 a.u. | 1868.4 a.u. | 4029.4 a.u. | neither the tumor cells treated with comparative AP10 nor the 293T human renal epithelial cells showed any fluorescence signal | – |
| B1 | – | – | – | – | – | – | – | – | – | – | – | – | – | – | – | – | – | 44% |
| B2 | – | – | – | – | – | – | – | – | – | – | – | – | – | – | – | – | – | 33% |
